What was measured:
[1] = system: CCRF-CEM cells; assay: G2/M arrest; format: cell-based; settings: minimum concentration that results in 60% of CCRF-CEM cells to arrest in G2-M
[2] = system: NCI-H322M; settings: NCI-H322M (Non-Small Cell Lung Cancer); PG=0; 48 hour incubation
[3] = system: NCI-H322M; assay: cells; settings: Homo sapiens, 48 h; for GI50: read-out: Log10 GI50 (converted)
[4] = system: LOX-IMVI; assay: cells; settings: Homo sapiens, 48 h
[5] = system: IGR-OV1; assay: SRB cytotoxicity screening assay (Ovarian); settings: for GI50: read-out: Log10 GI50 (converted); for Log10 TGI: IGR-OV1 (Ovarian), PG=0, 48 hour incubation
[6] = system: OVCAR-3; assay: SRB cytotoxicity screening assay (Ovarian); settings: for GI50: read-out: Log10 GI50 (converted); for Log10 TGI: OVCAR-3 (Ovarian), PG=0, 48 hour incubation
[7] = system: OVCAR-5; assay: SRB cytotoxicity screening assay (Ovarian); settings: for GI50 / CC50: Homo sapiens, OVCAR-5, 48 h; for GI50: read-out: Log10 GI50 (converted); for CC50: read-out: Log10 LC50 (converted); for Log10 TGI: OVCAR-5 (Ovarian), PG=0, 48 hour incubation
[8] = system: OVCAR-6; assay: SRB cytotoxicity screening assay (Ovarian); settings: for GI50 / CC50: 48 h; for GI50: read-out: Log10 GI50 (converted); for CC50: read-out: Log10 LC50 (converted)
[9] = system: K-562; assay: SRB cytotoxicity screening assay (Leukemia); settings: for GI50 / CC50: Homo sapiens, K562, 48 h; for GI50: read-out: Log10 GI50 (converted); for CC50: read-out: Log10 LC50 (converted); for Log10 TGI: K-562 (Leukemia), PG=0, 48 hour incubation
[10] = system: RPMI-8226; assay: SRB cytotoxicity screening assay (Leukemia); settings: for CC50: read-out: Log10 LC50 (converted)
[11] = system: SR; assay: SRB cytotoxicity screening assay (Leukemia); settings: for GI50 / CC50: Homo sapiens, SR, 48 h; for GI50: read-out: Log10 GI50 (converted); for CC50: read-out: Log10 LC50 (converted)
[12] = system: SK-MEL-2; assay: SRB cytotoxicity screening assay (Melanoma); settings: for GI50: read-out: Log10 GI50 (converted)
[13] = system: UACC-257; assay: SRB cytotoxicity screening assay (Melanoma); settings: for CC50: read-out: Log10 LC50 (converted); for Log10 TGI: UACC-257 (Melanoma), PG=0, 48 hour incubation
[14] = system: SNB-19; assay: SRB cytotoxicity screening assay (CNS Cancer); settings: for GI50 / CC50: Homo sapiens, SNB-19, 48 h; for GI50: read-out: Log10 GI50 (converted); for CC50: read-out: Log10 LC50 (converted); for Log10 TGI: SNB-19 (CNS Cancer), PG=0, 48 hour incubation
[15] = system: COLO 205; assay: SRB cytotoxicity screening assay (Colon Cancer); settings: for GI50: read-out: Log10 GI50 (converted)
[16] = system: HCT-116; assay: SRB cytotoxicity screening assay (Colon Cancer); settings: for Log10 TGI: HCT-116 (Colon Cancer), PG=0, 48 hour incubation
[17] = system: HT29; assay: SRB cytotoxicity screening assay (Colon Cancer); settings: for CC50: read-out: Log10 LC50 (converted)
[18] = system: A498; assay: SRB cytotoxicity screening assay (Renal Cancer); settings: for GI50 / CC50: Homo sapiens, A498, 48 h; for GI50: read-out: Log10 GI50 (converted); for CC50: read-out: Log10 LC50 (converted)
[19] = system: RXF-393; assay: SRB cytotoxicity screening assay (Renal Cancer); settings: for GI50 / CC50: Homo sapiens, RXF 393, 48 h; for GI50: read-out: Log10 GI50 (converted); for CC50: read-out: Log10 LC50 (converted)
[20] = system: SN12C; assay: SRB cytotoxicity screening assay (Renal Cancer); settings: for GI50 / CC50: Homo sapiens, SN12C, 48 h; for GI50: read-out: Log10 GI50 (converted); for CC50: read-out: Log10 LC50 (converted)
[21] = system: UO-31; assay: SRB cytotoxicity screening assay (Renal Cancer); settings: for GI50 / CC50: Homo sapiens, UO-31, 48 h; for GI50: read-out: Log10 GI50 (converted); for CC50: read-out: Log10 LC50 (converted)
[22] = system: MDA-MB-468; assay: SRB cytotoxicity screening assay (Breast Cancer)
[23] = system: PC-3; assay: SRB cytotoxicity screening assay (Prostate Cancer); settings: for GI50 / CC50: Homo sapiens, PC-3, 48 h; for GI50: read-out: Log10 GI50 (converted); for CC50: read-out: Log10 LC50 (converted); for Log10 TGI: PC-3 (Prostate Cancer), PG=0, 48 hour incubation
[24] = system: NCI-H460; assay: SRB cytotoxicity screening assay (Non-Small Cell Lung Cancer); settings: for Log10 TGI: NCI-H460 (Non-Small Cell Lung Cancer), PG=0, 48 hour incubation
[25] = system: cell line panel (60 lines, nine disease-related subpanels); assay: SRB cytotoxicity screening assay, whole cell line panel (mean values)
[26] = read-out: Log10 LC50 (converted)
[27] = mean value over the cell line panel

Structure (SMILES): CCCCCC(=O)O[C@H]1C[C@H]2OC[C@@]2(OC(C)=O)[C@H]2[C@H](OC(=O)c3ccccc3)[C@]3(O)C[C@H](OC(=O)[C@H](O)[C@@H](NC(=O)c4ccccc4)c4ccccc4)C(C)=C([C@@H](OC(C)=O)C(=O)[C@]12C)C3(C)C [7-hexanoyltaxol]
- G2/M arrest MED [1]: 0.10 µg/mL
- Log10 TGI [2]: −4.51 molar
- GI50 [3]: 20 nM
- CC50 [4, 26]: 57500 nM
- GI50 ([5]; Homo sapiens, IGROV-1, 48 h): < 10 nM
- CC50 ([5]; Homo sapiens, IGROV-1, 48 h, read-out: Log10 LC50 (converted)): > 100000 nM
- Log10 TGI [5]: −4.52 molar
- GI50 ([6]; Homo sapiens, OVCAR-3, 48 h): < 10 nM
- CC50 ([6]; Homo sapiens, OVCAR-3, 48 h, read-out: Log10 LC50 (converted)): 20900 nM
- Log10 TGI [6]: −7.65 molar
- GI50 [7]: < 10 nM
- CC50 [7]: 33900 nM
- Log10 TGI [7]: −5.47 molar
- GI50 [8]: < 10 nM
- CC50 [8]: 85100 nM
- Log10 TGI ([8]; OVCAR-6 (Ovarian), PG=0, 48 hour incubation): −4.88 molar
- GI50 [9]: < 10 nM
- CC50 [9]: > 100000 nM
- Log10 TGI [9]: −7.05 molar
- GI50 ([10]; Homo sapiens, RPMI-8226, 48 h, read-out: Log10 GI50 (converted)): < 10 nM
- CC50 ([10]; Homo sapiens, RPMI-8226, 48 h): > 100000 nM
- GI50 [11]: < 10 nM
- CC50 [11]: > 100000 nM
- GI50 ([12]; Homo sapiens, SK-MEL-2, 48 h): 93.3 nM
- CC50 ([12]; Homo sapiens, SK-MEL-2, 48 h, read-out: Log10 LC50 (converted)): > 100000 nM
- Log10 TGI ([12]; SK-MEL-2 (Melanoma), PG=0, 48 hour incubation): −4.56 molar
- CC50 ([13]; Homo sapiens, UACC-257, 48 h): > 100000 nM
- Log10 TGI [13]: −4.00 molar
- GI50 [14]: 10.2 nM
- CC50 [14]: > 100000 nM
- Log10 TGI [14]: −4.53 molar
- Log10 TGI ([15]; COLO 205 (Colon Cancer), PG=0, 48 hour incubation): −7.38 molar
- GI50 ([15]; Homo sapiens, COLO 205, 48 h): < 10 nM
- CC50 ([15]; Homo sapiens, COLO 205, 48 h, read-out: Log10 LC50 (converted)): 26300 nM
- Log10 TGI [16]: −4.94 molar
- GI50 ([16]; Homo sapiens, HCT-116, 48 h, read-out: Log10 GI50 (converted)): < 10 nM
- CC50 ([16]; Homo sapiens, HCT-116, 48 h, read-out: Log10 LC50 (converted)): > 100000 nM
- Log10 TGI ([17]; HT29 (Colon Cancer), PG=0, 48 hour incubation): −4.95 molar
- GI50 ([17]; Homo sapiens, HT-29, 48 h, read-out: Log10 GI50 (converted)): < 10 nM
- CC50 ([17]; Homo sapiens, HT-29, 48 h): 33100 nM
- Log10 TGI ([18]; A498 (Renal Cancer), PG=0, 48 hour incubation): −7.29 molar
- GI50 [18]: < 10 nM
- CC50 [18]: > 100000 nM
- GI50 [19]: < 10 nM
- CC50 [19]: 91200 nM
- GI50 [20]: < 10 nM
- CC50 [20]: > 100000 nM
- Log10 TGI ([20]; SN12C (Renal Cancer), PG=0, 48 hour incubation): >−4.00 molar
- GI50 [21]: 64.6 nM
- CC50 [21]: > 100000 nM
- Log10 TGI ([21]; UO-31 (Renal Cancer), PG=0, 48 hour incubation): >−4.00 molar
- GI50 ([22]; Homo sapiens, MDA-MB-468, 48 h, read-out: Log10 GI50 (converted)): < 10 nM
- CC50 ([22]; Homo sapiens, MDA-MB-468, 48 h, read-out: Log10 LC50 (converted)): > 100000 nM
- Log10 TGI ([22]; MDA-MB-468 (Breast Cancer), PG=0, 48 hour incubation): −6.26 molar
- GI50 [23]: < 10 nM
- CC50 [23]: > 100000 nM
- Log10 TGI [23]: −5.48 molar
- GI50 ([24]; Homo sapiens, NCI-H460, 48 h, read-out: Log10 GI50 (converted)): < 10 nM
- CC50 ([24]; Homo sapiens, NCI-H460, 48 h, read-out: Log10 LC50 (converted)): > 100000 nM
- Log10 TGI [24]: −4.75 molar
- potency compared with paclitaxel ([25]; cancer cell line panel, Table I): in most instances is as potent and in some instances more potent than paclitaxel
- Log10 GI50, MG_MID [25, 27]: −7.79 molar
- Log10 LC50, MG_MID [25, 27]: −4.32 molar
- Log10 TGI, MG_MID [25, 27]: −5.59 molar

Structure (SMILES): CC(=O)O[C@H]1C(=O)[C@@]2(C)[C@H]([C@H](OC(=O)c3ccccc3)[C@]3(O)C[C@H](OC(=O)[C@H](O)[C@@H](NC(=O)c4ccccc4)c4ccccc4)C(C)=C1C3(C)C)[C@]1(OC(C)=O)CO[C@@H]1C[C@@H]2O [Paclitaxel, paclitaxel, reference compound]
- G2/M arrest MED [1]: 0.025 µg/mL
- Log10 TGI [2]: −4.46 molar
- GI50 [3]: 0.0759 nM
- CC50 [3, 26]: > 100000 nM
- GI50 ([4]; read-out: Log10 GI50 (converted)): 0.00158 nM
- GI50 ([5]; Homo sapiens, IGROV-1, 48 h): 2.45 nM
- Log10 TGI [5]: −4.19 molar
- GI50 ([6]; Homo sapiens, OVCAR-3, 48 h): 0.0398 nM
- Log10 TGI [6]: −4.55 molar
- GI50 [7]: 0.417 nM
- CC50 [7]: > 100000 nM
- Log10 TGI [7]: −4.92 molar
- GI50 [8]: 0.0178 nM
- CC50 [8]: > 100000 nM
- GI50 [9]: 0.0148 nM
- CC50 [9]: > 100000 nM
- Log10 TGI [9]: >−4.00 molar
- CC50 ([10]; Homo sapiens, RPMI-8226, 48 h): > 100000 nM
- Log10 TGI ([10]; RPMI-8226 (Leukemia), PG=0, 48 hour incubation): >−4.00 molar
- GI50 [11]: 4.57 nM
- CC50 [11]: > 100000 nM
- Log10 TGI ([11]; SR (Leukemia), PG=0, 48 hour incubation): >−4.00 molar
- GI50 ([12]; Homo sapiens, SK-MEL-2, 48 h): 0.295 nM
- GI50 ([13]; Homo sapiens, UACC-257, 48 h, read-out: Log10 GI50 (converted)): 0.0501 nM
- CC50 ([13]; Homo sapiens, UACC-257, 48 h): 93300 nM
- Log10 TGI [13]: −4.52 molar
- GI50 [14]: 1.05 nM
- CC50 [14]: > 100000 nM
- Log10 TGI [14]: >−4.00 molar
- GI50 ([15]; Homo sapiens, COLO 205, 48 h): 0.00851 nM
- Log10 TGI [16]: −4.82 molar
- CC50 ([17]; Homo sapiens, HT-29, 48 h): 33100 nM
- GI50 [18]: 72.4 nM
- CC50 [18]: 74100 nM
- GI50 [19]: 4.79 nM
- CC50 [19]: 35500 nM
- Log10 TGI ([19]; RXF-393 (Renal Cancer), PG=0, 48 hour incubation): −4.90 molar
- GI50 [20]: 0.295 nM
- CC50 [20]: > 100000 nM
- GI50 [21]: 813 nM
- CC50 [21]: > 100000 nM
- GI50 [23]: 0.0141 nM
- CC50 [23]: > 100000 nM
- Log10 TGI [23]: >−4.00 molar
- Log10 TGI [24]: −4.92 molar
- Log10 TGI, MG_MID [25, 27]: −4.54 molar
- GI50 ([25]; read-out: Log10 GI50, MG_MID (converted)): 0.0708 nM
- CC50 ([25]; read-out: Log10 LC50, MG_MID (converted)): 87100 nM

Source: patent publication US6753345B2, “7-hexanolytaxol and methods for preparing the same” (Hauser, Inc., priority 1998, dated 2004)
